Reference: US20030055106A1, “Therapeutic uses of peroxometallic compounds” (priority 1999, published 2003)

What was measured:
murine B10R macrophages = assay: Chemokine mRNA expression (RNase protection); type: cell-based
Protocol: FIG. 9: Effect of bpV(phen) on chemokine mRNA expression in murine B10R macrophages. (A) Cells were incubated for 2 h with or without various concentrations of bpV(phen) (1-50 μM). Total RNA was isolated and analyzed by RNase protection. (B) Kinetic expression of chemokine genes in murine BIOR macrophages. Cells were incubated for increasing period of time (1-4 h) with or without bpV(phen) at 10 μM. Following extraction of total RNA, RNase protection assay was performed. Free RNA probe is shown in the far left lane. The fold increase was calculated from the densitometry of the autoradiogam.
Various concentrations of bpv(phen) were added to B10R macrophages for4 h. mRNA expression was measured by RNase protection assays. RANTES, MIP-1a/β MIP-2, IP-10 and MCP-1 chemokine mRNA levels increased in response to bpv(phen) (FIG. 9A). MCP-1, MIP-2, MIP-1β and RANTES were induced by the addition of bpv(phen) in a dose-dependent manner whereas IP-10 and MIP-1a were expressed at markedly lower concentrations (10 μM).
To determine the kinetics of chemokine expression following pV compound treatment, B10R macrophages were incubated with 10 ?M bpV(phen) for increasing time intervals. Total RNA was extracted from macrophages at various time-points and subjected to RNase protection assay. […] Thus, conditions for the induction of chemokine expression in response to bpV(phen) seems to vary with the different chemokines.

[1] = test system: Human umbilical vein endothelial cells (HUVECs); conditions: read-out: approximate IC50, endothelial cell proliferation; 96 hours in culture
Protocol: Each experiment was performed in triplicate. The culture medium was changed daily.

[2] = test system: Human prostate adenocarcinoma (PC-3); assay: Human prostate adenocarcinoma (PC-3) xenograft; type: in vivo, Male Balb/c nude (nu/nu) mice; conditions: 5 mg/Kg daily i.p. for 39 days
Protocol: B) Human prostate adenocarcinoma (PC-3) in the athymic mice: Male Balb/c nude (nu/nu) were purchased at 4-6 weeks of age from Charles Rivers Inc. Mice were housed under pathogen free conditions and maintained on a 12-h light/12-h dark cycle with food and water supplied ad libitum. The hormono-independent PC3 human tumor cells were from the American Tissue Cuture Collection. Cells were grown in DMEM in the presence of 5% foetal bovine serum. Cells were collected at confluence, included in a matrix (1.0×10^6 cells/ml; 30% Matrigel). An equal volume of the tumor cell suspension was injected s.c. in the right flank of each mouse. After 5 days, a palpable tumor of approximately 5×5 mm was detected in the inoculated animals. Mice with palpable tumors were divided into five groups (18 mice/group) for the treatment study. All mice in each treatment group had tumor of similar size at the start of treatment. For administration to mice, bpV(phen) was dissolved and diluted in phosphate buffered saline (PBS) at pH 7.4. A 5 mg/Kg dose of bpV(phen) was administed daily by i.p. for 39 days. Taxol was used as a positive control at the dose of 20 mg/Kg and injected i.p. at every three days. A control group of 10 animals was injected with PBS. The injection volume was kept constant at […]. The mice were weighed three times during the experimental period to assess toxicity of the treatment, and the tumors were measured twice weekly using calipers. Tumor volume was calculated from the two-dimensional caliper measurements using the following formula: tumor volume=length×(width)^2×0.53.
The treatment period was completed after 39 days, when the PBS treated group of mice had large tumors, requiring that the animals be sacrificed according to the Animal Care Procedures. […]
Statistical analysis: Tumor growth curves are presented in terms of treatment group means and SEs. Statistical significance of treatment effect was assessed by repeated measures ANOVA after applying a power transformation to equalize residual variances and linearize the tumor growth curves.

[3] = test system: endothelial cells having invaded Matrigel plugs; assay: In vivo s.c. Matrigel plug assay; parameters: species or system C57B1/6N female mice; conditions: daily i.p. administration of 10 μg/mice or higher doses, day 1 to day 7
Protocol: FIG. 5: bpV(phen) inhibits angiogenesis in vivo in the s.c. Matrigel assay. Graph showing the results of an experiment expressed as the number of cells that migrated in three microscopic fields for each s.c. Matrigel plug. Fields were equidistant from the edge of the plug. […] (2) Four mice that received daily administration of 10 μg bpV(phen) during the 7 days post-implantation. (3) Four mice that received daily administration of 50 μg bpV(phen) during the 7 days post-implantation. (4) Four mice that received daily administration of 100 μg bpv(phen) during the 7 days post-implantation. (5) Four mice that received daily administration of PBS during the 7 days post-implantation.
This assay was performed as previously described (107). Briefly, Matrigel (liquid at 4° C.) was mixed with 200 ng/ml ECGS and injected s.c. into four C57B1/6N female mice (1 ml/mice). After injection, the Matrigel polymerized to form a plug. After 7 days, the animals were sacrified, and the Matrigel plugs were removed and fixed in 10% neutral-buffered formalin solution (Sigma Chemical Co.) and embedded in paraffin. Histological sections were stained with Masson's trichrome and angiogenesis was scored by counting the number of cells that migrated in three microscopic fields for each s.c. Matrigel plug.
Experiments were performed to determine whether bpV(phen) inhibits vessel formation in vivo. […]

[4] = test system: ZR-75 breast cancer cells; assay: In vitro collagen-fibrin tumor progression model, ZR-75; type: cell-based, human
Source text: FIG. 12: Illustration of the antitumor activity of bpV(phen) in vitro using ZR-75 breast cancer cells. Experiments were done as described for the FIG. 11 except that DMEM medium having a high glucose concentration and without phenol red was used. 10% FBS was used instead of 5% FBS. The media was supplemented with 10^−9 M estradiol (final concentration).
The cells embedded in the collagen gel, grew as a “primary tumor”. Some cells migrated from the primary tumor towards the fibrin gel, forming front edges. […] Their extension and numbers are representative of the invasive potential of the cancer cells.

**Q.** Which results are given for `O.O.O.OO.OO.[K+].[OH-].[V].c1cnc2c(c1)ccc1cccnc12` [bpV(phen), potassium bisperoxo(1,10-phenanthroline)oxovanadate]?
**A.** most effective dose for the induction of chemokine gene expression (murine B10R macrophages): 10 µM; expression of RANTES mRNA (murine B10R macrophages; 10 μM bpV(phen)): increased in a time-dependent manner over 24 h; time of maximum levels of MIP-1a, MIP-2, IP-10, and MCP-1 chemokines mRNA (murine B10R macrophages; 10 μM bpV(phen)): 4 h; time of optimal expression of MIP-1β mRNA (murine B10R macrophages; 10 μM bpV(phen)): 8 h; RANTES, MIP-1a/β MIP-2, IP-10 and MCP-1 chemokine mRNA levels (murine B10R macrophages; various concentrations (1-50 μM)): increased; IC50 [1]: ~2000 nM; deaths [2]: No death; suppression of the final tumor compared with PBS-treated control animals [2]: 59%; body weight gained relative to weight at the initiation of the treatment ([2]; average): 1.7 grams; number of endothelial cells having invaded Matrigel plugs [3]: decreased by half; progression of ZR-75-1 cells (primary and secondary tumors) ([4]; 2 μM): restricted the growth of the primary tumor; progression of ZR-75-1 cells (primary and secondary tumors) ([4]; 5 and 10 μM): there were no secondary tumors and the primary tumor had a lower cell density
